Patent US12612395B2, “Rocaglate derivatives and uses thereof” (TRUSTEES OF BOSTON UNIVERSITY, priority 2023, dated 2026)
Values joined by “and” are separate entries in the source; they are usually repeats but may differ in a detail not shown here. Equal values may be shown once. Read-outs that look alike come from different tables or passages of the source.

Key:
DDX3X = biological target: T1, DDX3X (Homo sapiens, UniProt O00571); assay: PISA assay in GBM0308 cell lysates, DDX3X; assay type: binding; details: GBM0308 lysate, compound 10 μM, AMP-PNP and (AG)8 RNA added
T1 construct: endogenous in cells; host or cells: GBM0308 glioblastoma stem cells (lysate)
T1 sequence (O00571 whole entry): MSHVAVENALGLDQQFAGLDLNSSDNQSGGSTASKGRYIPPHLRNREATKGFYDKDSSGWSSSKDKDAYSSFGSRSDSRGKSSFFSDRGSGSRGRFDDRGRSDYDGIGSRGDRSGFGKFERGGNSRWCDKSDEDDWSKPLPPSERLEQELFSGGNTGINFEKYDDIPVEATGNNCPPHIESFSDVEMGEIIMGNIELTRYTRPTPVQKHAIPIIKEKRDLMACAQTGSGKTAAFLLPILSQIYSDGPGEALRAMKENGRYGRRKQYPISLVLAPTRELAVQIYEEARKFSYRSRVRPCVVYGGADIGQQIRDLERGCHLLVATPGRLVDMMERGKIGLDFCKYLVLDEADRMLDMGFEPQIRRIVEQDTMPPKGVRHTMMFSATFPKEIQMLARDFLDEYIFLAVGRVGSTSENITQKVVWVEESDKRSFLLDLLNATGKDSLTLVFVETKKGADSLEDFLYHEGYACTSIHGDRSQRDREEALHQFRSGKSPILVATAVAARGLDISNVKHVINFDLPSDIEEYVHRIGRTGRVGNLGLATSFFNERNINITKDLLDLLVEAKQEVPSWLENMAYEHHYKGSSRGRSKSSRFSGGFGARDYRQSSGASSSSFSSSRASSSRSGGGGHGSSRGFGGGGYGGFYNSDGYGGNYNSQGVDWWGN
Text: (§1) Derivatization-free target identification using a modified proteome integral solubility alteration (PISA) assay. The inventors next pursued proteome-wide target identification to better understand the target profiles of CSC-selective rocaglates. To enable cross-compound comparisons of target engagement, the inventors opted to use the Proteome Integral Solubility Alteration (PISA) assay,^29 a derivative of the mass spectrometry-based Cellular Thermal Shift Assay (MS-CETSA). In MS-CETSA,^30,31 target engagement is inferred through proteome-wide analysis of compound-induced changes to protein thermal stability; proteins with a shift in their half-maximal thermal denaturation temperature upon compound treatment are flagged as potential targets. The PISA assay obviates the need for MS-CETSA-derived thermal denaturation curves through curve integration by pooling of individual temperature points into a single “integral” sample for each treatment condition, thereby increasing throughput (FIG. 9). In contrast to MS-CETSA (which relies on curve comparisons), PISA determinations are performed by simply comparing soluble protein abundance levels between compound- and DMSO-treated samples. Importantly, protein fold-change measurements in PISA experiments generally scale with the thermal shift derived from CETSA experiments, and the magnitude of a thermal shift can inform on relative affinity between compounds and individual targets.^30,32-25 Maximal stability changes are protein-specific,^36 however, precluding estimations of preference for one target over another. Thus, PISA allows for simultaneous target profiling and comparisons of binding affinity between different compounds within a given target.
(§2) Of note, we also detected stabilization of DDX3Y, a paralog which shares >90% sequence similarity with DDX3X.
PISA assay in GBM0308 cell lysates: The PISA assay was performed in lysates as described by Gaetani and coworkers^S2 with slight modification. […] Lysate concentration was determined using a Pierce BCA Protein Assay Kit and adjusted to 2.0 mg/mL in lysis buffer. […]

eIF4A paralogs (eIF4A1) = assay: PISA assay in GBM0308 cell lysates, eIF4A; assay type: binding, human; details: GBM0308 lysate, compound 10 μM, AMP-PNP and (AG)8 RNA added
Text: as §1, §2
PISA assay in GBM0308 cell lysates: The PISA assay was performed in lysates as described by Gaetani and coworkers^S2 with slight modification. Pelleted GBM0308 cells were resuspended in ice-cold lysis buffer (1×PBS pH 7.4, 2 mM MgCl2, 0.5 mM AMP-PNP, 1 μM (AG)8 RNA, HALT protease inhibitor cocktail EDTA-free) and subjected to three freeze-thaw cycles with liquid nitrogen to extract lysate proteins. Thawing was performed at room temperature until ˜80% thawed, then completed on ice. Lysate was clarified by centrifugation for 10 minutes at 20,000 RCF and 4° C., transferred to a fresh Eppendorf tube, then centrifuged again for 10 minutes at 20,000 RCF and 4° C. to ensure removal of debris. Lysate concentration was determined using a Pierce BCA Protein Assay Kit and adjusted to 2.0 mg/mL in lysis buffer. Lysate was mixed 1:1 with a 2× solution of test compound or DMSO in lysis buffer, gently aspirated to ensure proper mixing, and incubated at room temperature for 10 minutes. […]

[1] = system: cap-dependent translation (FF cistron of FF-HCV-Ren); assay: In vitro translation assay, bicistronic FF-HCV-Ren mRNA reporter in Krebs-2 extracts; assay type: biochemical
Text: Given these observations, the inventors next sought to interrogate the effects of compound (−)-20 in secondary assays for both eIF4A and DDX3 engagement. […] While inherent differences between the FP assay conditions (e.g. probe affinity, protein mobility in FP buffer) preclude direct comparison of absolute AmP values across the two different proteins, the inventors noted that relative anti-CSC potencies for these compounds ((−)-7>(−)-5≈(−)-20) were similar to their relative degrees of clamping for DDX3X and eIF4A1. To follow up on these findings, the inventors performed in vitro translation experiments using a bicistronic mRNA reporter construct FF-HCV-Ren, where translation of the firefly luciferase (FF) cistron is cap-dependent, while translation of the Renilla luciferase (HCV-Ren) cistron is driven off an HCV-IRES, rendering translation of this cistron cap-independent.
In vitro translation assays: In vitro translations were performed using 4 ng/μL of bicistronic FF-HCV-Ren/pA51 reporter mRNA and the indicated compound concentrations in Krebs-2 extracts at 30° C. for 1 h as described previously.^S10 Cap-dependent FLuc and cap-independent RLuc activities were assessed on a Berthold Lumat LB 9507 luminometer (Berthold Technologies). Curves were determined using a non-linear regression model on GraphPad Prism 8.4.0.

[2] = FF cistron, Krebs-2 extracts, 30° C., 1 h, read-out: cap-dependent translation inhibition EC50

Compound	thermal stabilization of DDX3X (PISA), in words (DDX3X)	thermal stabilization of eIF4A paralogs (PISA), in words (eIF4A paralogs (eIF4A1))	EC50 [1, 2]	EC50 ([1]; approximate value, read-out: translation inhibition EC50) [nM]
COc1cc(OC)c2c(c1)O[C@@]1(c3ccc(Br)cc3)[C@H](c3ccccc3)[C@@H](C(=O)NS(=O)(=O)N(C)C)[C@@H](O)[C@@]21O [(−)-20, (1R,2R,3S,3aR,8bS)-3a-(4-bromophenyl)-N—(N,N-dimethylsulfamoyl)-1,8b-dihydroxy-6,8-dimethoxy-3-phenyl-2,3,3a,8b-tetrahydro-1H-cyclopenta[b]benzofuran-2-carboxamide]	stabilized	stabilized	937 nM	~1000
CONC(=O)[C@H]1[C@@H](O)[C@@]2(O)c3c(OC)cc(OC)cc3O[C@@]2(c2ccc(Br)cc2)[C@@H]1c1ccccc1 [(−)-7, SDS-1-021]	stabilized	stabilized		
CONC(=O)[C@H]1[C@@H](O)[C@@]2(O)c3c(OC)cc(OC)cc3O[C@@]2(c2ccc(OC)cc2)[C@@H]1c1ccccc1 [(−)-5, CR-1-31b, reference compound]		stabilization	215 nM and ~200 nM	
